Results published in patent publication US8703705B2, “Modified factor VIII peptides” (Apitope International NV, priority 2009, dated 2014).
No end group written: not given here.

Columns and labels:
Solubility of peptide = assay type: physicochemical
[1] = system: FVIII-DR2+ T cell hybridoma clones; assay: FVIII peptide specificity of T cell hybridomas generated from FVIII-/- HLA-DR2+ mice (IL-2 ELISA); assay type: cell-based, mouse; conditions: of 19 hybridomas specific for factor VIII; factor VIII deficient HLA-DR2 mice
Description: Factor VIII deficient mice expressing HLA-DR2 were immunised with factor VIII in adjuvant. Spleen cells from the immunised mice were restimulated in vitro with factor VIII and the resulting lymphoblasts were fused with BW5147, as described above. T-cell hybridomas were screened for their response to the 12 predicted peptides. Yet again, the majority of hybridomas responded to peptides DNIMV (SEQ ID NO: 11) and PRCLT (SEQ ID NO: 9). Of 19 hybridomas specific for factor VIII, 10 responded to DNIMV (SEQ ID NO: 11), 6 to PRCLT (SEQ ID NO: 9), 1 to PPIIA (SEQ ID NO: 4), 1 to SLYIS (SEQ ID NO: 3) and 1 to DTLLI (SEQ ID NO: 8).
The same method was followed as for (ii), except the mice were FVIII-deficient and HLA-DR2+.

LNC from FVIII-DR2+ mice = assay: Recall responses of lymph node cells from FVIII-DR2+ mice primed with rhFVIII/CFA; assay type: cell-based, mouse; conditions: FVIII-DR2+ animals immunised with factor VIII in adjuvant; FIG. 3
Description: HLA-DR2 transgenic mice were crossed with factor VIII deficient mice to create a model of haemophilia expressing the human HLA class II MHC molecule.
These FVIII-DR2+ animals were immunised with factor VIII in adjuvant. Draining lymph nodes were isolated and tested for their response to the peptide panel.
The same method was followed as for (i), except the mice were FVIII-deficient, HLA-DR2+ and murine MHC class II null.

[2] = system: FVIII+DR2+ T cell hybridoma clones; assay: FVIII peptide specificity of T cell hybridomas generated from DR2+ mice (IL-2 ELISA); assay type: cell-based, mouse; conditions: for number of hybridomas responding to peptide: of the 27 hybridomas screened, 20 μg/ml peptide, IL-2
Description: HLA-DR2 mice were first immunised with factor VIII in adjuvant. Spleen cells from immune mice were restimulated in vitro with factor VIII and the resulting lymphoblasts were fused with the BW5147 thymoma using polyethylene glycol.
T-cell hybridomas were selected in HAT medium and the hybridomas cloned and tested for their response to factor VIII. The hybridomas were then screened for their response to the 12 predicted peptides.
HLA-DR2+ murine MHC class II null mice were immunised as above. On day 10 draining lymph nodes were removed and lymphocytes cultured at 2.5×10^6 cells/ml, 1 ml/well in 24 well plates in the presence of 20 μg/ml rhFVIII for 3 days. Following this stimulation, lymphocytes were recovered, washed and fused with TCRα^−β^− BW fusion partner cells at a ratio of 4 BW cells to 1 lymphocyte, using polyethylene glycol as described by Nelson et al (1980) PNAS 77(5):2866. Fused cells were carefully washed and then plated out in flat bottomed 96 well plates for 2 days before the addition of HAT medium to select for T cell hybridomas. Cells were monitored for growth and approximately 10 days after fusions were performed, individual clones were selected and transferred to 24 well plates in HAT medium. Clones were maintained in HAT medium for at least 2 weeks before being weaned into HT medium and then complete medium. Clones were tested for antigenic specificity by culturing 100 μl of hybridoma cells with 5×10^4 Mgar cells in the presence and absence of 20 μg/ml rhFVIII overnight. Supernatants were then collected and assessed for IL-2 production by ELISA, with clones producing IL-2 in response to rhFVIII being considered positive for FVIII-specificity. To investigate the repertoire of predicted FVIII peptides FVIII-specific clones were again tested for IL-2 production, following overnight incubation with 20 μg/ml of each of the 12 peptides.

[3] = system: FVIII-/- clones with fresh or fixed Mgar cells; assay: Apitope test: presentation by fresh or paraformaldehyde-fixed Mgar cells to hybridoma clones, IL-2 by ELISA; assay type: cell-based, mouse; conditions: Mgar cells fresh or fixed with 1% paraformaldehyde, 20 μg/ml, FIG. 5
Description: In order to be an apitope, a peptide must be capable of binding to an MHC class I or II molecule without further antigen processing (i.e. trimming) and be presented to a T cell. In the present case, the capacity of peptides to be presented by fixed APC was investigated.
Mgar cells were either fresh or fixed with 1% paraformaldehyde. Clones were tested for antigenic specificity by culturing 100 μl of hybridoma cells with 5×10^4 Mgar cells in the presence and absence of 20 μg/ml rhFVIII or peptide epitopes overnight. Supernatants were then collected and assessed for IL-2 production by ELISA.

HLA-DR2 transgenic mice = assay: Tolerisation of FVIII-specific responses in DR2+ mice by peptide pre-treatment before priming with rhFVIII/CFA; assay type: in vivo, mouse; conditions: 3 x 100 μg i.p. in PBS prior to priming with rhFVIII/CFA; FIG. 6
Description: HLA-DR2 transgenic mice were treated with either of the two soluble peptides, or PBS as a control, prior to immunisation with factor VIII in adjuvant. Draining lymph nodes were isolated and the cells restimulated in vitro with factor VIII protein in order to assess the immune status of the mice.
HLA-DR2+ murine MHC class II null mice were treated 3 times with 100 μg of DNIMV (SEQ ID NO: 11), PRCLT (SEQ ID NO: 9) or PPIIA (SEQ ID NO: 4) dissolved in PBS, or the equivalent volume of PBS alone. Peptides were administered intraperitoneally, with 3-4 days between each dose. Following the final administration, mice were primed with rhFVIII emulsified in complete Freunds adjuvant as for (i). 10 days later, draining lymph nodes were recovered and lymphocytes subsequently cultured in vitro with rhFVIII, or each of the tolerising peptides as well as control antigens, for 72 hours before the addition of tritiated thymidine as for (i). (vi) Tolerisation of FVIII-Specific Responses in DR2+Mice by Pre-Treatment with a Combination Immunodominant FVIII Peptides

Sequence: DNIMVTFRNQASRPY [DNIMV, DNIMVTFRNQASRPY]
- solubility (Solubility of peptide): partly, but not completely soluble

Sequence: DTLLIIFKNQASRPY (listed as Homo sapiens) [FVIII 15mer peptide, first AA 478]
- number of hybridomas responding to peptide [1]: 1

Sequence: EDNIMVTFRNQASR [EDNIMV, EDNIMVTFRNQASR]
- solubility (Solubility of peptide): sufficiently soluble to allow intranasal peptide delivery
- solubility relative to parent peptide (Solubility of peptide; compared with DNIMV): more soluble than DNIMV

Sequence: GTLMVFFGNVDSSGI (listed as Homo sapiens) [FVIII 15mer peptide, first AA 2140]
- response of draining lymph node cells to peptide (LNC from FVIII-DR2+ mice): weak response

Sequence: PPIIARYIRLHPTHY (listed as Homo sapiens) [FVIII 15mer peptide, first AA 2161]
- character of hybridoma response to peptide ([2]; 27 hybridomas screened): weaker and less specific
- number of hybridomas responding to peptide [2]: 3
- number of hybridomas responding to peptide [1]: 1

Sequence: PRCLTRYYSSFVNME (listed as Homo sapiens) [FVIII 15mer peptide, first AA 545]
- number of hybridomas responding to peptide [2]: 3
- presentation by live and fixed APC (function as apitope) [3]: presented by both live and fixed mgar cells
- response of draining lymph node cells to peptide (LNC from FVIII-DR2+ mice): responded well
- number of hybridomas responding to peptide [1]: 6
- suppression of the immune response to factor VIII (LNC recall to FVIII) (HLA-DR2 transgenic mice): substantial suppression of the immune response to factor VIII

Sequence: RYLRIHPQSWVHQIA (listed as Homo sapiens) [FVIII 15mer peptide, first AA 2322]
- response of draining lymph node cells to peptide (LNC from FVIII-DR2+ mice): significant response

Sequence: SLYISQFIIMYSLDG (listed as Homo sapiens) [FVIII 15mer peptide, first AA 2114]
- number of hybridomas responding to peptide [1]: 1
